Source: patent US20240325353A1, “COMPOUND FOR TREATMENT OF COGNITIVE DISORDERS” (Syndesi Therapeutics SA, priority 2021, published 2024)

Tested on: functional connectivity of brain networks (DMN, visual network)
Assay: resting state BOLD-fMRI functional connectivity
Assay type: in vivo, human
Conditions: post dose versus baseline
Method: This example describes the fMRI analysis performed in the context of the study in Example 3. Simultaneous with the dynamic PET described in example 3 above, MRI data were acquired using a resting state BOLD-fMRI (rs-fMRI) protocol. In the following section, the methodology and results of the analysis of these MRI data are presented.
Resting state BOLD-fMRI data were acquired according to the following protocol: For the analysis of the rs-fMRI scans, all data were converted to the BIDS format for processing with the CONN toolbox (release 19c).
The following preprocessing steps were performed: • Slice timing correction: Temporal misalignment between different slices of the rs-fMRI scans, due to the sequential nature of the fMRI acquisition, is corrected by applying an appropriate timeshift to match the actual acquisition time • Realignment: RS-fMRI data were realigned where all scans were coregistered to the first scan of the first session. This way, potential susceptibility distortion-by-motion interactions were also addressed by estimating the derivatives of the deformation field with respect to head movement, and resampling the functional data to match the deformation field of the reference image. • Outlier detection: Potential outlier scans were identified from the observed global BOLD signal and the amount of subject-motion in the scanner. […]

O=C1C[C@H](c2cc(F)c(F)c(F)c2)CN1Cn1ncnc1Cl [compound of example 1, (4R)-1-[(5-chloro-1H-1,2,4-triazol-1-yl)methyl]-4-(3,4,5-trifluorophenyl)pyrrolidin-2-one]
connectivity in the DMN (seed IC12) (low doses (all four individuals at 1 and 2 mg)): modulate and enhance connectivity in the DMN
connectivity between IC18 (Visual network) and auditory network (relatively low occupancy levels): increased
